In PMC7391767, “Molecular mechanisms underlying menthol binding and activation of TRPM8 ion channel” (Nature Communications, 2020):
Values joined by “and” are separate entries in the source; they are usually repeats but may differ in a detail not shown here. Equal entries are not always repeated.

Assays:
Assay type in all cases: cell-based
Design in all cases: Shifts in ANAP emission, Ave: unit: nm
ANAP-incorporated TRPM8 [1] = target: T1, ANAP-incorporated TRPM8 (Mus musculus, UniProt Q8R4D5, A875X)
T1 construct: expressed in transfected cells; host or cells: HEK293 cells, co-transfected with the pANAP vector
Experimental: (§1) As fluorescence emission peak of ANAP shifts to a longer wavelength in more hydrophilic environment, we measured the shift in ANAP emission peak to report conformational changes. Fluorescence properties of ANAP may also be affected by other factors such as temperature and pH[31], so we performed our ANAP experiments always at room temperature (22 ± 1°C). To control for changes in solution pH, we added 3 mM HEPES in ANAP imaging solution to buffer the pH at 7.2. We genetically integrated ANAP into a specific site on TRPM8 with special tRNA and synthetase encoded by pANAP vector (Fig. 5d).
(§2) L-ANAP methyl ester was purchased from AsisChem. pANAP vector was purchased from Addgene. ANAP was incorporated into TRPM8 by introducing a TAG amber stop codon mutation as previously reported. Briefly, after co-transfection of both TRPM8 and pANAP vectors, ANAP was directly added to the culture medium to the final concentration of 20 µM. After 1–2 days, ANAP-containing culture medium was completely changed. Cells were further cultured in ANAP-free medium overnight before experiments.
(§3) ANAP fluorescence was excited by the Ar laser with a 375/28 excitation filter, a T400lp dichroic mirror, and a 435LP emission filter on an inverted fluorescence microscope (Nikon TE2000-U) using a ×40 oil-immersion objective (NA 1.3). Emission spectrum of ANAP was imaged with an Acton SpectraPro 2150i spectrograph in conjunction with an optiMOS CCD camera (Qimaging, USA). We determined the ANAP emission peak value by fitting the emission spectrum with a skewed Gauss distribution in Igor Pro version 6.1 (WaveMatrix), and then the difference in emission peak values measured in the absence and presence of menthol was reported as the shift of ANAP emission.

ANAP-incorporated TRPM8 [2] = target: T2, ANAP-incorporated TRPM8 (Mus musculus, UniProt Q8R4D5, D944X); conditions: ANAP incorporation site D944
T2 construct: expressed in transfected cells; host or cells: HEK293 cells, co-transfected with the pANAP vector
Experimental: as §1, §2, §3

ANAP-incorporated TRPM8 [3] = target: T3, ANAP-incorporated TRPM8 (Mus musculus, UniProt Q8R4D5, F872X); conditions: ANAP incorporation site F872
T3 construct: expressed in transfected cells; host or cells: HEK293 cells, co-transfected with the pANAP vector
Experimental: as §1, §2, §3

ANAP-incorporated TRPM8 [4] = target: T4, ANAP-incorporated TRPM8 (Mus musculus, UniProt Q8R4D5, L939X)
T4 construct: expressed in transfected cells; host or cells: HEK293 cells, co-transfected with the pANAP vector
Experimental: as §1, §2, §3

ANAP-incorporated TRPM8 [5] = target: T5, ANAP-incorporated TRPM8 (Mus musculus, UniProt Q8R4D5, P734X); conditions: ANAP incorporation site P734; average shift, menthol activated vs resting state
T5 construct: expressed in transfected cells; host or cells: HEK293 cells, co-transfected with the pANAP vector
Experimental: as §1, §2, §3

ANAP-incorporated TRPM8 [6] = target: T6, ANAP-incorporated TRPM8 (Mus musculus, UniProt Q8R4D5, S824X)
T6 construct: expressed in transfected cells; host or cells: HEK293 cells, co-transfected with the pANAP vector
Experimental: as §1, §2, §3

ANAP-incorporated TRPM8 [7] = target: T7, ANAP-incorporated TRPM8 (Mus musculus, UniProt Q8R4D5, S921X); conditions: ANAP incorporation site S921
T7 construct: expressed in transfected cells; host or cells: HEK293 cells, co-transfected with the pANAP vector
Experimental: as §1, §2, §3

ANAP-incorporated TRPM8 [8] = target: T8, ANAP-incorporated TRPM8 (Mus musculus, UniProt Q8R4D5, S966X); conditions: ANAP at S966
T8 construct: expressed in transfected cells; host or cells: HEK293 cells, co-transfected with the pANAP vector
Experimental: as §1, §2, §3

ANAP-incorporated TRPM8 [9] = target: T9, ANAP-incorporated TRPM8 (Mus musculus, UniProt Q8R4D5, T795X); conditions: ANAP incorporation site T795; average shift, menthol activated vs resting state
T9 construct: expressed in transfected cells; host or cells: HEK293 cells, co-transfected with the pANAP vector
Experimental: as §1, §2, §3

ANAP-incorporated TRPM8 [10] = target: T10, ANAP-incorporated TRPM8 (Mus musculus, UniProt Q8R4D5, V876X); conditions: ANAP incorporation site V876
T10 construct: expressed in transfected cells; host or cells: HEK293 cells, co-transfected with the pANAP vector
Experimental: as §1, §2, §3

ANAP-incorporated TRPM8 [11] = target: T11, ANAP-incorporated TRPM8 (Mus musculus, UniProt Q8R4D5, W896X); conditions: ANAP incorporation site W896
T11 construct: expressed in transfected cells; host or cells: HEK293 cells, co-transfected with the pANAP vector
Experimental: as §1, §2, §3

ANAP-incorporated TRPM8 [12] = target: T12, ANAP-incorporated TRPM8 (Mus musculus, UniProt Q8R4D5, W898X); conditions: ANAP incorporation site W898
T12 construct: expressed in transfected cells; host or cells: HEK293 cells, co-transfected with the pANAP vector
Experimental: as §1, §2, §3

ANAP-incorporated TRPM8 [13] = target: T13, ANAP-incorporated TRPM8 (Mus musculus, UniProt Q8R4D5, Y787X); conditions: ANAP incorporation site Y787, menthol activated vs resting state
T13 construct: expressed in transfected cells; host or cells: HEK293 cells, co-transfected with the pANAP vector
Experimental: as §1, §2, §3

ANAP-incorporated TRPM8 [14] = target: T14, ANAP-incorporated TRPM8 (Mus musculus, UniProt Q8R4D5, Y808X); conditions: ANAP incorporation site Y808; average shift, menthol activated vs resting state
T14 construct: expressed in transfected cells; host or cells: HEK293 cells, co-transfected with the pANAP vector
Experimental: as §1, §2, §3

ANAP-incorporated TRPM8 [15] = target: T15, ANAP-incorporated TRPM8 (Mus musculus, UniProt Q8R4D5, Y924X); conditions: ANAP incorporation site Y924
T15 construct: expressed in transfected cells; host or cells: HEK293 cells, co-transfected with the pANAP vector
Experimental: as §1, §2, §3

[16] = average shift, menthol activated vs resting state

Compound: CC(C)[C@@H]1CC[C@@H](C)C[C@H]1O [menthol, (−)-menthol]
- Shifts in ANAP emission, Ave (ANAP-incorporated TRPM8 [1]; ANAP at A875): 6.61
- shift of ANAP emission peak (ANAP-incorporated TRPM8 [1]; ANAP at A875 site, redshifted, menthol-induced (0.5 mM), n = 5): 6.6 ± 0.4 nm
- Shifts_ave (ANAP-incorporated TRPM8 [1]; ANAP incorporation site A875, average shift, menthol activated vs resting state): 6.61 nm
- Shifts in emission (ANAP-incorporated TRPM8 [1]; ANAP incorporation site A875, menthol activated vs resting state, single measurement): 6.25 nm and 6.04 nm and 7.45 nm and 7.64 nm and 5.66 nm
- Emission Peak at menthol activated state (ANAP-incorporated TRPM8 [1]; ANAP incorporation site A875, single measurement): 495.85 nm and 493.43 nm and 494.62 nm and 492.72 nm and 492.66 nm
- Shifts_ave (ANAP-incorporated TRPM8 [2]; [16]): -0.0133 nm
- Emission Peak at menthol activated state (ANAP-incorporated TRPM8 [2]; single measurement): 482.52 nm and 471.8 nm and 476.65 nm and 473.2 nm and 484.21 nm and 484.16 nm
- Shifts_ave (ANAP-incorporated TRPM8 [3]; [16]): 0.53 nm
- Emission Peak at menthol activated state (ANAP-incorporated TRPM8 [3]; single measurement): 477.57 nm and 487.64 nm and 475.42 nm and 485.75 nm and 480.39 nm
- Shifts in ANAP emission, Ave (ANAP-incorporated TRPM8 [4]; ANAP at L939): 2.11
- Shifts_ave (ANAP-incorporated TRPM8 [4]; ANAP incorporation site L939, average shift, menthol activated vs resting state): 2.11 nm
- Shifts in emission (ANAP-incorporated TRPM8 [4]; ANAP incorporation site L939, menthol activated vs resting state, single measurement): 2.38 nm and 1.56 nm and 2.39 nm
- Emission Peak at menthol activated state (ANAP-incorporated TRPM8 [4]; ANAP incorporation site L939, single measurement): 484.67 nm and 488.02 nm and 485.09 nm
- Shifts_ave (ANAP-incorporated TRPM8 [5]): 1.477 nm
- Shifts in ANAP emission, Ave (ANAP-incorporated TRPM8 [6]; ANAP at S824): 2.89
- Shifts_ave (ANAP-incorporated TRPM8 [6]; ANAP incorporation site S824, average shift, menthol activated vs resting state): 2.90 nm
- Emission Peak at menthol activated state (ANAP-incorporated TRPM8 [6]; ANAP incorporation site S824, single measurement): 488.12 nm and 482.56 nm and 490.74 nm
- Shifts_ave (ANAP-incorporated TRPM8 [7]; [16]): 1.07 nm
- Shifts in emission (ANAP-incorporated TRPM8 [7]; menthol activated vs resting state, single measurement): 1.34 nm and 1.13 nm and 1.09 nm and 0.99 nm and 0.8 nm
- Emission Peak at menthol activated state (ANAP-incorporated TRPM8 [7]; single measurement): 493.48 nm and 489.7 nm and 490.23 nm and 494.29 nm and 493.18 nm
- Shifts in ANAP emission, Ave (ANAP-incorporated TRPM8 [8]): 2.10
- Shifts_ave (ANAP-incorporated TRPM8 [9]): 1.996 nm
- Shifts_ave (ANAP-incorporated TRPM8 [10]; [16]): 0.71 nm
- Emission Peak at menthol activated state (ANAP-incorporated TRPM8 [10]; single measurement): 481.62 nm and 479.21 nm and 478.64 nm and 484.51 nm and 491.43 nm
- Shifts_ave (ANAP-incorporated TRPM8 [11]; [16]): -1.22 nm
- Emission Peak at menthol activated state (ANAP-incorporated TRPM8 [11]; single measurement): 474.04 nm and 481.17 nm and 479.96 nm and 475.43 nm
- Shifts_ave (ANAP-incorporated TRPM8 [12]; [16]): -1.33 nm
- Emission Peak at menthol activated state (ANAP-incorporated TRPM8 [12]; single measurement): 483.12 nm and 481.69 nm and 486.71 nm and 481.28 nm
- Shifts_ave (ANAP-incorporated TRPM8 [13]; average shift): 1.928 nm
- Shifts in emission (ANAP-incorporated TRPM8 [13]; single measurement): 1.56 nm and 1.57 nm and 2.4 nm and 1.35 nm and 2.69 nm and 2 nm
- Shifts_ave (ANAP-incorporated TRPM8 [14]): 1.79 nm
- Shifts_ave (ANAP-incorporated TRPM8 [15]; [16]): -0.72 nm
- Emission Peak at menthol activated state (ANAP-incorporated TRPM8 [15]; single measurement): 483.26 nm and 481.78 nm and 474.51 nm and 486.54 nm
